{
  "source": "patent US9980936B2",
  "about": "“BH4 antagonists and methods related thereto” (Emory University, priority 2014, dated 2018)",
  "key": {"[1]": {"biological_target": "purified, human Bcl2 protein (Homo sapiens, UniProt P10415)", "sequence (P10415 whole entry, the tested form may be a part)": "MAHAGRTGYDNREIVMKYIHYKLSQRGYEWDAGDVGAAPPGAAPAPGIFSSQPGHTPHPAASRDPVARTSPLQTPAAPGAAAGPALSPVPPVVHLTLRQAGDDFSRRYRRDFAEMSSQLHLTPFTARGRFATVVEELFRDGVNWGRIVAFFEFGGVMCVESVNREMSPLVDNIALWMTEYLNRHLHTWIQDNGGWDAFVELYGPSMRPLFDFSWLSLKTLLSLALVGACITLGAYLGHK", "assay": "in vitro cell-free Bcl2 conformational change assay (IP with anti-Bcl2/BH3 domain antibody)", "type": "biochemical", "experimental": "To test whether BDA-2 directly induces Bcl2 conformational change, an in vitro cell-free assay was employed. Purified recombinant Bcl2 protein was incubated with increasing concentrations of BDA-2 in lysis buffer, followed by immunoprecipitation (IP) using the anti-Bcl2/BH3 domain antibody."}, "A549 cells": {"test_system": "A549 cells", "assay": "Bcl2 expression after mTOR inhibition (Western blot)", "type": "cell-based", "conditions": "increasing concentrations, 24 hr", "experimental": "(§1) A549 or H460 cells were treated with increasing concentrations of RAD001 for 24 h. Bcl2 and p-P70S6K were analyzed by Western blot.\n(§2) Rapamycin and its derivative RAD001 (i.e. everolimus) are potent allosteric inhibitors of mTOR. […] Previous reports indicate that expression of Bcl2 is associated with resistance of cancer cells to mTOR inhibitors. To further test whether mTOR inhibition regulates Bcl2 expression, A549 and H460 cells were treated with increasing concentrations of RAD001 for 24 hr."}, "H460 cells [2]": {"test_system": "H460 cells", "assay": "Bcl2 expression after mTOR inhibition (Western blot)", "type": "cell-based", "conditions": "increasing concentrations, 24 hr", "experimental": "as §1, §2"}, "[3]": {"test_system": "Bcl2 in tumor tissues of NSCLC patients", "assay": "Bcl2 expression by IHC in tumor tissue of treated NSCLC patients", "type": "in vivo, human", "conditions": "5 or 10 mg/day for 28 days, 10 NSCLC patients", "experimental": "To test whether a similar effect of RAD001 on Bcl2 expression occurs in patients Bcl2 expression was analyzed by IHC in baseline and post-treatment tissue samples obtained from 10 NSCLC patients treated with RAD001 (5 or 10 mg/day) for 28 days as part of a neoadjuvant clinical study of everolimus in patients with resectable NSCLC. […] Thus, inhibition of Bcl2 may enhance the potency of mTOR inhibitor against lung cancer."}, "H460 cells [4]": {"test_system": "H460 cells", "assay": "SRB cell growth assay, combination with mTOR inhibitor", "type": "cell-based, human", "conditions": "BDA-366 100 nM, RAD001 1 nM, alone or in combination, 72 hr", "experimental": "Cell growth was analyzed by sulforhodamine B (SRB) colorimetric assay."}, "purified recombinant Bax": {"test_system": "purified recombinant Bax", "assay": "cell-free Bax activation (IP using 6A7 Bax antibody)", "type": "biochemical", "conditions": "without Bcl2", "experimental": "BDA-366-induced Bcl2 conformational change was also confirmed by immunofluorescence using a Bcl2/BH3-domain specific antibody. […] To test this possibility, a 6A7 Bax antibody that only recognizes the conformationally changed, active, form of Bax was employed. Purified Bcl2 was treated with BDA-366 in lysis buffer for 1 h. The mixture of Bcl2/BDA-2 was then incubated with purified recombinant Bax for another 2 h, followed by IP using 6A7 antibody.\nTo further test whether the BH3 domain of Bcl2 is important for BDA-366 activation of Bax, purified recombinant WT and the BH3 deletion (ΔBH3) mutant Bcl2 proteins were incubated with purified Bax protein in the absence or presence of BDA-366, followed by IP with 6A7 antibody. […] To test this at the cellular or mitochondrial level, WT, ΔBH3 Bcl2 mutant and empty vector (pCIneo) were transfected into H1299 cells that express undetectable levels of endogenous Bcl2 but high levels of endogenous Bax. Cells or isolated mitochondria from these cells were treated with BDA-2, followed by IP with Bcl2 BH3 or 6A7 antibody, respectively."}, "Plasmid pUC19 DNA": {"test_system": "Plasmid pUC19 DNA", "assay": "electrophoretic mobility shift assay (EMSA)", "type": "binding", "experimental": "To test whether BDA-2 reacts with DNA as a crosslinker, electrophoretic mobility shift assay (EMSA) was performed. Cisplatin, a known DNA binding agent, was used as positive control. Plasmid pUC19 DNA was incubated with BDA-2 or cisplatin."}, "[5]": {"test_system": "H460 or DMS53 cells expressing Bcl2 shRNA transfected with WT Bcl2", "assay": "rescue of Bcl2-silenced cells with exogenous WT Bcl2", "type": "cell-based", "conditions": "72 h", "excerpt": "(§3) Whether expression of exogenous Bcl2 can restore the sensitivity of Bcl2-silenced lung cancer cells to BDA-2 and whether the BDA-2/BH4 binding is important for such effect was examined. WT and BDA-2 binding deficient D10A/N11A/R12A/E13A (AAAA) Bcl2 mutant cDNA in pCIneo or vector-only control were transfected into H460 or DMS53 cells expressing Bcl2 shRNA. It has been reported that if the shRNA is directed to the 3′ UTR or 5′ UTR of the gene, the effect of the shRNA1 can be rescued by ectopically expressing the protein using the wild-type or mutant cDNA. Because Bcl2 shRNA1 targets the 5′UTR of endogenous Bcl2, the silencing effect of shRNA1 on Bcl2 expression could be rescued by transfection of exogenous WT or AAAA Bcl2 mutant. After transfection, cells were treated with BDA-2 or the BH3 mimetic ABT-199 at the indicated concentrations for 72 h. […] The apoptotic effect of BDA-2 on lung cancer cells requires its BH4 binding."}, "[6]": {"test_system": "H460 or DMS53 cells expressing Bcl2 shRNA transfected with AAAA Bcl2 mutant", "assay": "rescue of Bcl2-silenced cells with AAAA Bcl2 mutant", "type": "cell-based", "conditions": "72 h", "excerpt": "as §3"}},
  "note": "Entries after “also recorded” stand apart in the source; their conditions may differ.",
  "data": [
    {"compound": "COc1cc([C@@H]2c3cc4c(cc3[C@@H](O[C@@H]3O[C@@H]5CO[C@@H](C)O[C@H]5[C@H](O)[C@H]3O)[C@H]3COC(=O)[C@H]23)OCO4)cc(OC)c1O", "note": "[VP-16]", "values": [
      {"measurement": "direct induction of Bcl2 conformational change (BH3 exposure)", "setting": "[1]", "value": "not"}
    ]},
    {"compound": "C#Cc1cccc(Nc2ncnc3cc(OCCOC)c(OCCOC)cc23)c1", "note": "[erlotinib, N-(3-ethynylphenyl)-6,7-bis(2-methoxyethoxy)quinazolin-4-amine]", "values": [
      {"measurement": "Bcl-2/Bcl-XL expression", "setting": "lung cancer cells", "value": "up-regulation of Bcl-2/Bcl-XL"}
    ]},
    {"compound": "CO[C@H]1C[C@@H]2CC[C@@H](C)[C@@](O)(O2)C(=O)C(=O)N2CCCC[C@H]2C(=O)O[C@H]([C@H](C)C[C@@H]2CC[C@@H](OCCO)[C@H](OC)C2)CC(=O)[C@H](C)/C=C(\\C)[C@@H](O)[C@@H](OC)C(=O)[C@H](C)C[C@H](C)/C=C/C=C/C=C/1C", "note": "[RAD001]", "values": [
      {"measurement": "Bcl2 expression", "setting": "A549 cells", "value": "up-regulation of Bcl2 in a dose-dependent manner; also recorded: up-regulates Bcl2"},
      {"measurement": "Bcl2 expression", "setting": "H460 cells [2]", "value": "up-regulation of Bcl2 in a dose-dependent manner; also recorded: up-regulates Bcl2"},
      {"measurement": "Bcl2 expression in post-treatment tumor tissues compared to baseline", "setting": "[3]", "value": "increased expression of Bcl2"},
      {"measurement": "cell growth inhibition", "setting": "H460 cells [4]", "value": "partially inhibited lung cancer cell growth"}
    ]},
    {"compound": "BAM7 [reference compound]", "values": [
      {"measurement": "direct activation of Bax", "setting": "purified recombinant Bax", "value": "can directly activate Bax"}
    ]},
    {"compound": "N.N.[Cl][Pt][Cl]", "note": "[cisplatin, reference compound]", "values": [
      {"measurement": "binding to pUC19 DNA causing mobility shift", "setting": "Plasmid pUC19 DNA", "value": "can bind to pUC19 DNA to cause mobility shift"},
      {"measurement": "direct induction of Bcl2 conformational change (BH3 exposure)", "setting": "[1]", "value": "not"}
    ]},
    {"compound": "CC1(C)CCC(CN2CCN(c3ccc(C(=O)NS(=O)(=O)c4ccc(NCC5CCOCC5)c([N+](=O)[O-])c4)c(Oc4cnc5[nH]ccc5c4)c3)CC2)=C(c2ccc(Cl)cc2)C1", "note": "[ABT-199, reference compound]", "values": [
      {"measurement": "sensitivity of cells after expression of exogenous WT Bcl2", "setting": "[5]", "value": "restored sensitivity"},
      {"measurement": "sensitivity of cells restored after expression of AAAA Bcl2", "setting": "[6]", "value": "restored the sensitivity"}
    ]}
  ]
}
